Reference: patent US11111245B2, “Derivatives of N-cycloalkyl/heterocycloalkyl-4-(imidazo[1,2-a]pyridine)pyrimidin-2-amine as therapeutic agents” (Aucentra Therapeutics Pty Ltd, priority 2017, dated 2021)
Like-named read-outs stand apart in the source and are kept apart here.

What was measured:
Type in all cases: biochemical
CDK9/T1 = CDK9/T1 (Homo sapiens, UniProt P50750); assay: ADP Glo Kinase assay CDK9/T1
Method in brief: (§1)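 CDK4/D1 and CDK6/D3 were run in […] Tris pH 7.5, 20 mM MgCl2, 0.4 mM DTT, 0.1 mg/ml BSA with RB-CTF substrate; CDK9/T1 used RBER-IRStide. ATP-started reactions ran 40 min at 37° C, with ADP Glo luminescence read-out. IC50 came from 4-parameter fits; Ki from Km (ATP) and IC50.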

CDK6/D3 = CDK6/D3 (Homo sapiens, UniProt Q00534); assay: ADP Glo Kinase assay CDK6/D3; settings: CDK6D3; for remaining activity at 10 µM: compound at 10 μM, read-out: residual activity (%) at 10 μM CDK6D3; for Ki: read-out: CDK inhibition, Ki (μM) CDK6D3
Procedure: Eurofins Pharma Discovery or Reaction Biology Corporation Kinase Profiler services were used to measure inhibition of CDKs and other kinases by radiometric assay. Inhibition of CDK4/D1, CDK6/D3 and CDK9/T1 were also determined in-house using ADP Glo Kinase assays (Promega Corporation, Madison, USA). Briefly, the kinase reaction for CDK4/D1 and CDK6/D3 was performed with kinase reaction buffer ([…] Tris base pH 7.5, 20 mM MgCl2, 0.4 mM DTT), 0.1 mg/ml BSA and RB-CTF substrate (retinoblastoma protein 1 C-terminal fraction). For CDK9/CyclinT1, the kinase reaction was performed with standard assay buffer and Kinase Dilution Buffer and RBER-IRStide substrate. Serial dilutions of 1:3 were prepared for test compounds for 10 concentrations (from 10 μM to 0.5 nM). The kinase reactions were started by addition of ATP, incubated for 40 min at 37° C. and then stopped by adding 10 μL of ADP Glo reagent. After incubation at room temperature in the dark for 40 min, 20 μL of kinase detection reagent was added per well and incubated for 40 min. Luminescence was measured using an EnVision Multilabel plate reader (PerkinElmer, Buckinghamshire, UK). Positive and negative controls were performed in the presence and absence of CDK kinases, respectively. Half-maximal inhibition (IC50) values were calculated using a 4-parameter logistic non-linear regression model with Graphpad prism (Version 6.0). Apparent inhibition constants (Ki) values were calculated from Km (ATP) and IC50 values for the respective kinases.

CDKs and other kinases [1] = target: T1, CDKs and other kinases (Homo sapiens, UniProt P06493); assay: Radiometric kinase assay (Eurofins Pharma Discovery or Reaction Biology Corporation Kinase Profiler); settings: CDK1B; for remaining activity at 10 µM: compound at 10 μM, read-out: residual activity (%) at 10 μM CDK1B; for Ki: read-out: CDK inhibition, Ki (μM) CDK1B
T1 construct: other: CDK1B; residual activity (%) at 10 μM CDK1B; compound at 10 μM
Method in brief: (§2)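 Other CDKs and further kinases were profiled externally by radiometric assay. In-house ADP Glo assays covered CDK4/D1 and CDK6/D3 (RB-CTF substrate, pH 7.5 Tris buffer with MgCl2, DTT, BSA) and CDK9/T1 (RBER-IRStide substrate), 40 min at 37° C.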

CDKs and other kinases [2] = target: T2, CDKs and other kinases (Homo sapiens, UniProt P50613); assay: as above; settings: for remaining activity at 10 µM: compound at 10 μM, read-out: residual activity (%) at 10 μM CDK7H
T2 construct: other: CDK7H; residual activity (%) at 10 μM CDK7H; compound at 10 μM
Method in brief: as §2

CDKs and other kinases [3] = target: T3, CDKs and other kinases (Homo sapiens, UniProt P24941); assay: as above; settings: CDK2A; for remaining activity at 10 µM: compound at 10 μM, read-out: residual activity (%) at 10 μM CDK2A; for Ki: read-out: CDK inhibition, Ki (μM) CDK2A
T3 construct: other: CDK2A; residual activity (%) at 10 μM CDK2A; compound at 10 μM
Method in brief: as §2

CDK4/D1 = CDK4/D1 (Homo sapiens, UniProt P11802); assay: ADP Glo Kinase assay CDK4/D1; settings: CDK4D1; for remaining activity at 10 µM: compound at 10 μM, read-out: residual activity (%) at 10 μM CDK4D1; for Ki: read-out: CDK inhibition, Ki (μM) CDK4D1
Method in brief: as §1

[4] = CDK9T1, read-out: CDK inhibition, Ki (μM) CDK9T1
[5] = CDK7H, read-out: CDK inhibition, Ki (μM) CDK7H

CDK9/T1, sequence (P50750 whole entry): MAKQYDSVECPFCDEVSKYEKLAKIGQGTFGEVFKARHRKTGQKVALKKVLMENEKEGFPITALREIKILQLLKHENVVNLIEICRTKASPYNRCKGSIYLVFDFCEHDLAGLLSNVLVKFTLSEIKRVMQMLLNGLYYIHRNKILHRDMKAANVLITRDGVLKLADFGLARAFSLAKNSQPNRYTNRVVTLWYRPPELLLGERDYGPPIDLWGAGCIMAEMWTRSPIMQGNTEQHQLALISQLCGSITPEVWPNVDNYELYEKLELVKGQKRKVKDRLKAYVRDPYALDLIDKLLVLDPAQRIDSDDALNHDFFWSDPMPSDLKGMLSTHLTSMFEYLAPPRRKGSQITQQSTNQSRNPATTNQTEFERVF
CDK9/T1, sequence (O60563 whole entry partner): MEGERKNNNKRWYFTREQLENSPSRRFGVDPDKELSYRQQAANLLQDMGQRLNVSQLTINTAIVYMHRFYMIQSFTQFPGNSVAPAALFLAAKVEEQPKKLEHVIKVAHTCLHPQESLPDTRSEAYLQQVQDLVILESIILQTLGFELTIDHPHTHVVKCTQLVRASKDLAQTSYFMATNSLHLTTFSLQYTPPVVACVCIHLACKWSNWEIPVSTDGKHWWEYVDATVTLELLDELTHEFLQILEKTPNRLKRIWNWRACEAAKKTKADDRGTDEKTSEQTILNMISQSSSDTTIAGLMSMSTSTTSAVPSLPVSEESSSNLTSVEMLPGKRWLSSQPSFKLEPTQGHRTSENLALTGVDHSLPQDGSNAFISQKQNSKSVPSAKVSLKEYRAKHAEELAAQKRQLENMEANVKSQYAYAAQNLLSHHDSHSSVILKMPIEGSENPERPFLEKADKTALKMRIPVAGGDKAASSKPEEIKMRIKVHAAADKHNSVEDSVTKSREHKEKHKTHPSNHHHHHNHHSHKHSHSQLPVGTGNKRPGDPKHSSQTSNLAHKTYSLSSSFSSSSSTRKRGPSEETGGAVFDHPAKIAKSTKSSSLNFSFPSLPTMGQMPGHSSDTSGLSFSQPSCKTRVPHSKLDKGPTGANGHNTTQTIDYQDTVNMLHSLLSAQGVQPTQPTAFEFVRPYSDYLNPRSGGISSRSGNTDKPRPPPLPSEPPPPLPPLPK
CDK4/D1, sequence (P11802 whole entry): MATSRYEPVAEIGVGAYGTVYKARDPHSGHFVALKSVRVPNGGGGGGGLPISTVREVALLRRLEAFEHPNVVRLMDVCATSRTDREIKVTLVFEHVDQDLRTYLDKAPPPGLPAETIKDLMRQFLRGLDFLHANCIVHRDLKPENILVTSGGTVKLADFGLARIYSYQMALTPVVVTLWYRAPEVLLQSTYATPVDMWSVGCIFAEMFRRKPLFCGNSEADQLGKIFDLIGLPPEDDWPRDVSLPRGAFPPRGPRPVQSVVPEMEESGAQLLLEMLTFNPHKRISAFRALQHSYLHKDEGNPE
CDK4/D1, sequence (P24385 whole entry partner): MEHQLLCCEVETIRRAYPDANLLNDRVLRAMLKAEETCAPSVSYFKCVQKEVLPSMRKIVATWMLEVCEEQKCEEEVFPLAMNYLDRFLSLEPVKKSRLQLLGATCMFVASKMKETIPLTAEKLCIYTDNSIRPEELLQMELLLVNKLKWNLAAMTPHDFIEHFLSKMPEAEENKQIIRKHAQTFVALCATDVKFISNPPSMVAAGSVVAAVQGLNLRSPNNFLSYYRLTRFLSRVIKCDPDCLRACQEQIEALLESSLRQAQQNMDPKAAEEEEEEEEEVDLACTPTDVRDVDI
CDK6/D3, sequence (Q00534 whole entry): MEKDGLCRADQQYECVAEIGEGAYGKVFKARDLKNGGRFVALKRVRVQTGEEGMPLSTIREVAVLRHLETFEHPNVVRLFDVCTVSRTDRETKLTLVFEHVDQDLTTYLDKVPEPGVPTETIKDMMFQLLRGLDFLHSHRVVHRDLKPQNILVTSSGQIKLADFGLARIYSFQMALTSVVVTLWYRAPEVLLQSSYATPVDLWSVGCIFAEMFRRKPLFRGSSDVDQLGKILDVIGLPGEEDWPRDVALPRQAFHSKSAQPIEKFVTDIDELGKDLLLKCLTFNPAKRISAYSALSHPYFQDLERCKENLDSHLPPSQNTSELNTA
CDK6/D3, sequence (P30281 whole entry partner): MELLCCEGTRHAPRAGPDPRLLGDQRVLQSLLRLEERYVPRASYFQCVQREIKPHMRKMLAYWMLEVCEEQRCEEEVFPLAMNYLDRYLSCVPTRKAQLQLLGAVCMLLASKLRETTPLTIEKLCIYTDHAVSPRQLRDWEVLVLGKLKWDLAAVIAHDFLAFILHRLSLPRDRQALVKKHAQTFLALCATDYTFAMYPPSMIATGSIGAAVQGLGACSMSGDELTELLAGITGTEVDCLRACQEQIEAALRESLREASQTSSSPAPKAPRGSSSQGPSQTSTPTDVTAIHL
T1 sequence (P06493 whole entry): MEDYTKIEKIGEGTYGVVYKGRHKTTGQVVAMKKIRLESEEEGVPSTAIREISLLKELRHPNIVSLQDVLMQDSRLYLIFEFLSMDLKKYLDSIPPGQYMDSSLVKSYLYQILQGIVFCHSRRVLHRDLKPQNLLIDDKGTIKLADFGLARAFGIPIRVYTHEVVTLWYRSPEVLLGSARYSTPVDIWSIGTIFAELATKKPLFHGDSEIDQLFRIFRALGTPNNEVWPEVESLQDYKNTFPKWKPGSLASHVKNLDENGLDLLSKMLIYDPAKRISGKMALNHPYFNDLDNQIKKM
T2 sequence (P50613 whole entry): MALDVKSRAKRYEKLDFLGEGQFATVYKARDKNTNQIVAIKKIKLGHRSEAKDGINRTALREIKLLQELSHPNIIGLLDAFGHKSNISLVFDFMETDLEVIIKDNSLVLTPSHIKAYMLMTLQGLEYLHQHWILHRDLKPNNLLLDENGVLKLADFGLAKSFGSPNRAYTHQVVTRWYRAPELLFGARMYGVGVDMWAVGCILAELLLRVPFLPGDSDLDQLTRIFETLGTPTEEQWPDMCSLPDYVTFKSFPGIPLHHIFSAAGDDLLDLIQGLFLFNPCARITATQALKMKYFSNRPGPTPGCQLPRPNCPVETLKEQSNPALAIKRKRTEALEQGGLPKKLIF

SMILES | Ki (CDK9/T1; [4]) [µM] | remaining activity at 10 µM (CDK6/D3) [%] | remaining activity at 10 µM (CDKs and other kinases [1]) [%] | remaining activity at 10 µM (CDKs and other kinases [2]; CDK7H) [%] | remaining activity at 10 µM (CDKs and other kinases [3]) [%] | remaining activity at 10 µM (CDK4/D1) [%] | Ki (CDK6/D3) [µM] | Ki (CDKs and other kinases [1]) [µM] | Ki (CDKs and other kinases [2]; [5]) [µM] | Ki (CDKs and other kinases [3]) [µM] | Ki (CDK4/D1) [µM] | residual activity at 10 µM (CDK4/D1) [%] | Ki (CDK9/T1) [µM] | Ki (CDKs and other kinases [2]) [µM]
N[C@H]1CC[C@H](Nc2ncc(Cl)c(-c3cnc4cc(-c5cccnc5)ccn34)n2)CC1 [Compound 78, (1r,4r)-N^1-(5-Chloro-4-(7-(pyridin-3-yl)imidazo[1,2-a]pyridin-3-yl)pyrimidin-2-yl)cyclohexane-1,4-diamine] | 0.019 | 3 | 7 | 3 | 0 | 10 | – | – | – | – | – | – | – | –
Cc1cnc(N[C@H]2CN3CCC2CC3)nc1-c1cnc2ccc(Nc3cncnc3)cn12 [Compound 76, (R)-N-(5-Methyl-4-(6-(pyrimidin-5-ylamino)imidazo [1,2-a]pyridin-3-yl)pyrimidin-2-yl)quinuclidin-3-amine] | 0.485 | 89 | 72 | 92 | 59 | 91 | – | – | – | – | – | – | – | –
C[C@]12C[C@]3(C)C[C@](O)(C1)C[C@](Nc1ncc(F)c(-c4cnc5ccc(Nc6cncnc6)cn45)n1)(C2)C3 [Compound 111, (1s,3r,5R,7S)-3-((5-Fluoro-4-(6-(pyrimidin-5-ylamino)imidazo[1,2-a]pyridin-3-yl)pyrimidin-2-yl)amino)-5,7-dimethyladamantan-1-ol] | 0.108 | 89 | 20 | 86 | 11 | 29 | – | – | – | – | – | – | – | –
N[C@H]1CC[C@H](Nc2ncc(Cl)c(-c3cnc4cc(-c5ccccc5)ccn34)n2)CC1 [Compound 77, (1r,4r)-N^1-(5-Chloro-4-(7-phenylimidazo[1,2-a]pyridin-3-yl)pyrimidin-2-yl)cyclohexane-1,4-diamine] | 0.011 | 6 | 5 | 3 | 0 | 5 | – | – | – | – | – | – | – | –
Cc1cnc(N[C@H]2CC[C@H](N3CC3)CC2)nc1-c1cnc2cc(Nc3cncnc3)ccn12 [Compound 119, 3-(2-(((1r,4r)-4-(Aziridin-1-yl)cyclohexyl)amino)-5-methylpyrimidin-4-yl)-N-(pyrimidin-5-yl)imidazo[1,2-a] pyridin-7-amine] | – | – | – | – | – | – | 0.54 | 0.623 | – | 0.14 | 0.64 | – | 0.004 | 0.12
Cc1cnc(N[C@H]2CC[C@H](N)CC2)nc1-c1cnc2ccc(Nc3cncc(C(F)(F)F)c3)cn12 [Compound 65, (1r,4r)-N^1-(5-Methyl-4-(6-((5-(trifluoromethyl)pyridin-3-yl)amino)imidazo[1,2-a]pyridin-3-yl)pyrimidin-2-yl) cyclohexane-1,4-diamine] | 0.024 | 24 | 32 | 31 | 12 | – | – | – | – | – | – | 125 | – | –
Cc1cnc(N2CCC3(CCNC3=O)CC2)nc1-c1cnc2ccc(-c3ccccc3)cn12 [Compound 125, 8-(5-Methyl-4-(6-phenylimidazo[1,2-a]pyridin-3-yl)pyrimidin-2-yl)-2,8-diazaspiro[4.5]decan-1-one] | 2.88 | 92 | – | – | – | 100 | – | > 5 | 4.56 | 3.94 | – | – | – | –
Cc1cnc(N[C@H]2CC[C@H](N)CC2)nc1-c1cnc2ccc(N(C)c3cccnc3)cn12 [Compound 122, (1r,4r)-N^1-(5-Methyl-4-(6-(methyl(pyridin-3-yl)amino)imidazo[1,2-a]pyridin-3-yl)pyrimidin-2-yl)cyclohexane-1,4-diamine] | 0.3 | 44 | – | – | – | 71 | – | 1.71 | 1.16 | 1.15 | – | – | – | –
Cc1cnc(N[C@H]2CC[C@H](N)CC2)nc1-c1cnc2cc(Nc3cncnc3)ccn12 [Compound 56, (1r,4r)-N^1-(5-Methyl-4-(7-(pyrimidin-5-ylamino)imidazo [1,2-a]pyridin-3-yl)pyrimidin-2-yl)cyclohexane-1,4-diamine] | 0.051 | 5 | 39 | 22 | 12 | 0 | – | – | – | – | – | – | – | –

More lines, main results first:

Ki (CDK9/T1; [4]) [µM] | remaining activity at 10 µM (CDK6/D3) [%] | remaining activity at 10 µM (CDKs and other kinases [1]) [%] | remaining activity at 10 µM (CDKs and other kinases [2]; CDK7H) [%] | remaining activity at 10 µM (CDKs and other kinases [3]) [%] | remaining activity at 10 µM (CDK4/D1) [%] | Ki (CDK6/D3) [µM] | Ki (CDKs and other kinases [1]) [µM] | Ki (CDKs and other kinases [2]; [5]) [µM] | Ki (CDKs and other kinases [3]) [µM] | Ki (CDK4/D1) [µM] | residual activity at 10 µM (CDK4/D1) [%] | SMILES | Ki (CDK9/T1) [µM] | Ki (CDKs and other kinases [2]) [µM]
0.034 | 46 | 52 | 50 | 22 | 41 | – | – | – | – | – | – | Cc1cnc(N[C@H]2CC[C@H](N)CC2)nc1-c1cnc2ccc(Oc3cncnc3)cn12 [Compound 75, (1r,4r)-N^1-(5-Methyl-4-(6-(pyrimidin-5-yloxy)imidazo [1,2-a]pyridin-3-yl)pyrimidin-2-yl)cyclohexane-1,4-diamine] | – | –
0.008 | – | – | – | – | – | 0.21 | 1.26 | > 10 | 0.18 | 0.94 | – | CNC1CCC(Nc2ncc(C)c(-c3cnc4ccc(Nc5cncnc5)cn34)n2)CC1 (stereo not drawn) [Compound 109, N^1-Methyl-N^4-(5-Methyl-4-(6-(pyrimidin-5-ylamino)imidazo[1,2-a]pyridin-3-yl)pyrimidin-2-yl)cyclohexane-1,4-diamine] | – | –
> 5 | 100 | 66 | 87 | 61 | 99 | – | – | – | – | – | – | C[C@]12C[C@]3(C)C[C@](O)(C1)C[C@](Nc1ncc(F)c(-c4cnc5ccc(-c6ccccc6)cn45)n1)(C2)C3 [Compound 110, (1s,3r,5R,7S)-3-((5-Fluoro-4-(6-phenylimidazo[1,2-a]pyridin-3-yl)pyrimidin-2-yl)amino)-5,7-dimethyladamantan-1-ol] | – | –
0.003 | 5 | 1 | 3 | 0 | 0 | – | – | – | – | – | – | N[C@H]1CC[C@H](Nc2ncc(F)c(-c3cnc4ccc(Nc5cccnc5)cn34)n2)CC1 [Compound 49, (1r,4r)-N^1-(5-Fluoro-4-(6-(pyridin-3-ylamino)imidazo [1,2-a]pyridin-3-yl)pyrimidin-2-yl)cyclohexane-1,4-diamine] | – | –
0.032 | 47 | – | – | – | – | – | 0.78 | 3.86 | 0.86 | 2.21 | – | Cc1cnc(N[C@H]2CC[C@H](NC(C)C)CC2)nc1-c1cnc2ccc(Nc3cncnc3)cn12 [Compound 121, (1r,4r)-N^1-Isopropyl-N^4-(5-methyl-4-(6-(pyrimidin-5-ylamino)imidazo[1,2-a]pyridin-3-yl)pyrimidin-2-yl) cyclohexane-1,4-diamine] | – | –
0.002 | – | – | – | – | – | 0.034 | 0.16 | 1.26 | 0.019 | 0.06 | – | N[C@H]1CC[C@H](Nc2ncc(Cl)c(-c3cnc4ccc(Nc5cncnc5)cn34)n2)CC1 [Compound 88, (1r,4r)-N^1-(5-Chloro-4-(6-(pyrimidin-5-ylamino)imidazo [1,2-a]pyridin-3-yl)pyrimidin-2-yl)cyclohexane-1,4-diamine] | – | –
